Values of other authors in US8357679B2, “Hexafluoroisopropanol derivatives” (MSD Oss B.V., priority 2008, dated 2013).

Key:
[1] = test system: vascular smooth muscle cell; settings: in vitro
[2] = in vivo
tumours = settings: animal model of prostate cancer
[3] = in vivo; remark: listed apart in the source

## O=S(=O)(c1ccccc1)N(CC(F)(F)F)c1ccc(C(O)(C(F)(F)F)C(F)(F)F)cc1 [Example T0901317, T0901317]
[1]
  vascular smooth muscle cell proliferation: inhibit
[2]
  neointima formation following balloon injury: inhibit
tumours
  progression of tumours: delayed progression of tumours
[3]
  deposition of β-amyloid: lower deposition of β-amyloid
  memory: improve memory
